From US20260015315A1, “AMINO LIPID COMPOUND, PREPARATION METHOD THEREFOR, COMPOSITION THEREOF AND APPLICATION THEREOF” (SHENZHEN SHENXIN BIOTECHNOLOGY CO., LTD., priority 2022, published 2026)

Test system: BALB/c mice
Test: In vivo delivery of lipid nanoparticle encapsulating luciferase mRNA (Fluc mRNA), IVIS imaging
Conditions: for Total flux (fluorescence expression intensity): Fluc mRNA-LNP (amino lipid:DSPC:CHO-HP:PEG2000-DMG 48:10:40.5:1.5), whole body; for Total flux (fluorescence expression intensity) / Spleen (fluorescence expression intensity) / Liver (fluorescence expression intensity): 75 μL tail vein IV, female BALB/c mice, IVIS 6 hours after injection; for Spleen (fluorescence expression intensity) / (Spleen/Total Flux) * 100% / Multiple of spleen delivery/total delivery (Spleen/Total Flux) to Compound 118 / Liver (fluorescence expression intensity): Fluc mRNA-LNP; for (Spleen/Total Flux) * 100% / Multiple of spleen delivery/total delivery (Spleen/Total Flux) to Compound 118: tail vein IV, BALB/c mice, 6 hours; for Multiple of spleen delivery/total delivery (Spleen/Total Flux) to Compound 118: relative to Compound 118
Protocol: The amino lipid compound of the present disclosure, a helper lipid, a structural lipid, and a PEG-lipid were separately dissolved in absolute ethanol to prepare respective solutions at concentrations of 20 mg/mL, 10 mg/mL, 20 mg/mL, and 25 mg/mL, respectively. The above four solutions were pipetted at a molar ratio of the amino lipid compound: DSPC:CHO-HP:PEG2000-DMG of 48:10:40.5:1.5, and mixed well to prepare an alcohol phase.
(2) Encapsulation: The water phase and the alcohol phase were injected into a microfluidic chip at a flow rate of water phase:alcohol phase=12 mL/min: 4 mL/min by using a microfluidic preparation instrument (MPE-L2), and encapsulation was carried out at a flow rate of water phase:alcohol phase=9 mL/min: 3 mL/min to obtain mRNA-encapsulating lipid nanoparticle (mRNA-LNP).
(3) Dialysis: The product of step (2) was loaded in a dialysis bag and placed in a Tris Buffer-8% sucrose solution for replacement to remove ingredients such as residual ethanol, unassembled lipids. Dialysis was conducted for 2 h with magnetic stirring at room temperature and under protection from light (dialysate was replaced every 1 hour).
(4) The product of step (3) was sterilized by passing through a 0.22 μm microporous membrane, and then packaged.
Lipid nanoparticle formulations encapsulating Flue mRNA were prepared, with a concentration of Flue mRNA of 0.2 μg/μL, a mass ratio of Flue mRNA to Lipid of 1:10, a particle size of 80-130 nm, and a encapsulation efficiency of 80% or higher.
• Animal preparation: Female BALB/c mice of 6-8 weeks old were selected and raised in an SPF grade breeding room. Animal testing was conducted in strict accordance with the guidelines of national health institutions and animal ethics requirements.
In vivo Delivery: prior to injection of the test LNP formulations, the LNP formulations were gently and repeatedly inverted to thoroughly mix the formulation samples. A corresponding amount of the formulation samples were aspirated with a 1 ml insulin syringe, and the LNP formulations were injected by tail vein injection (IV), with 3 mice in duplicate per formulation. Each mouse was injected with 75 μL of the luciferase mRNA (Flue mRNA)-encapsulating lipid nanoparticle formulation prepared in Experimental Example 1.
6 hours after injection of LNP formulations, mice were injected with 200 μL D-Luciferin luciferase developing substrate (Catalog No. 122799; Manufacturer: Perkin Elmer). After the substrate was injected, the mice were anesthetized by injection of 200 μl of 2.5% avertin, and the injection time of luciferase developing substrate was recorded.
The fluorescence expression intensity induced by the lipid nanoparticle encapsulating luciferase mRNA (Flue mRNA) with a representative amino lipid compound is shown in Table 4, with the amino lipid compound 118 as a control.

SMILES: CCCCCCC(CCCCCC)OC(=O)CCCCCCCCC(CCCCCCCCC(=O)OC(CCCCCC)CCCCCC)N(CCCN(C)C)C(=O)COCCCC [compound 119]
- Total flux (fluorescence expression intensity): 2.65E+07
- Spleen (fluorescence expression intensity): 6.80E+06
- (Spleen/Total Flux) * 100%: 25.66%
- Multiple of spleen delivery/total delivery (Spleen/Total Flux) to Compound 118: 22.51

SMILES: CCCCCCC(CCCCCC)OC(=O)CCCCCCCCC(CCCCCCCCC(=O)OC(CCCCCC)CCCCCC)N(CCCN(C)C)C(=O)COCCCCC [compound 120]
- Total flux (fluorescence expression intensity): 3.48E+07
- Spleen (fluorescence expression intensity): 6.46E+06
- (Spleen/Total Flux) * 100%: 18.56%
- Multiple of spleen delivery/total delivery (Spleen/Total Flux) to Compound 118: 16.28

SMILES: CCCCCCOCC(=O)N(CCCN(C)C)C(CCCCCCCCC(=O)OC(CCCCCC)CCCCCC)CCCCCCCCC(=O)OC(CCCCCC)CCCCCC [compound 121]
- Total flux (fluorescence expression intensity): 3.07E+07
- Spleen (fluorescence expression intensity): 7.14E+06
- (Spleen/Total Flux) * 100%: 23.26%
- Multiple of spleen delivery/total delivery (Spleen/Total Flux) to Compound 118: 20.40

SMILES: CCCCCCCOCC(=O)N(CCCN(C)C)C(CCCCCCCCC(=O)OC(CCCCCC)CCCCCC)CCCCCCCCC(=O)OC(CCCCCC)CCCCCC [compound 122]
- Total flux (fluorescence expression intensity): 3.56E+07
- Spleen (fluorescence expression intensity): 3.02E+06
- (Spleen/Total Flux) * 100%: 8.48%
- Multiple of spleen delivery/total delivery (Spleen/Total Flux) to Compound 118: 7.44

SMILES: CCCCCCCCOCC(=O)N(CCCN(C)C)C(CCCCCCCCC(=O)OC(CCCCCC)CCCCCC)CCCCCCCCC(=O)OC(CCCCCC)CCCCCC [compound 123]
- Total flux (fluorescence expression intensity): 5.95E+07
- Spleen (fluorescence expression intensity): 4.02E+06
- (Spleen/Total Flux) * 100%: 6.76%
- Multiple of spleen delivery/total delivery (Spleen/Total Flux) to Compound 118: 5.93

SMILES: CCCCCCC(CCCCCC)OC(=O)CCCCCCCCC(CCCCCCCCC(=O)OC(CCCCCC)CCCCCC)N(CCCN(C)C)C(=O)CCOCCCC [compound 124]
- Total flux (fluorescence expression intensity): 3.45E+07
- Spleen (fluorescence expression intensity): 6.18E+06
- (Spleen/Total Flux) * 100%: 17.91%
- Multiple of spleen delivery/total delivery (Spleen/Total Flux) to Compound 118: 15.71

SMILES: CCCCCCC(CCCCCC)OC(=O)CCCCCCCCC(CCCCCCCCC(=O)OC(CCCCCC)CCCCCC)N(CCCN(C)C)C(=O)CCOCCCCC [compound 125]
- Total flux (fluorescence expression intensity): 5.40E+07
- Spleen (fluorescence expression intensity): 2.72E+06
- (Spleen/Total Flux) * 100%: 5.04%
- Multiple of spleen delivery/total delivery (Spleen/Total Flux) to Compound 118: 4.42

SMILES: CCCCCCOCCC(=O)N(CCCN(C)C)C(CCCCCCCCC(=O)OC(CCCCCC)CCCCCC)CCCCCCCCC(=O)OC(CCCCCC)CCCCCC [compound 126]
- Total flux (fluorescence expression intensity): 5.39E+07
- Spleen (fluorescence expression intensity): 6.87E+06
- (Spleen/Total Flux) * 100%: 12.75%
- Multiple of spleen delivery/total delivery (Spleen/Total Flux) to Compound 118: 11.18

SMILES: CCCCCCCOCCC(=O)N(CCCN(C)C)C(CCCCCCCCC(=O)OC(CCCCCC)CCCCCC)CCCCCCCCC(=O)OC(CCCCCC)CCCCCC [compound 127]
- Total flux (fluorescence expression intensity): 3.56E+07
- Spleen (fluorescence expression intensity): 4.60E+06
- (Spleen/Total Flux) * 100%: 12.92%
- Multiple of spleen delivery/total delivery (Spleen/Total Flux) to Compound 118: 11.33

SMILES: CCCCCCCCOCCC(=O)N(CCCN(C)C)C(CCCCCCCCC(=O)OC(CCCCCC)CCCCCC)CCCCCCCCC(=O)OC(CCCCCC)CCCCCC [compound 128]
- Total flux (fluorescence expression intensity): 5.62E+07
- Spleen (fluorescence expression intensity): 3.01E+06
- (Spleen/Total Flux) * 100%: 5.36%
- Multiple of spleen delivery/total delivery (Spleen/Total Flux) to Compound 118: 4.70

SMILES: CCCCCCC(CCCCCC)OC(=O)CCCCCCCCC(CCCCCCCCC(=O)OC(CCCCCC)CCCCCC)N(CCCN(C)C)C(=O)CCCOCCCC [compound 129]
- Total flux (fluorescence expression intensity): 3.53E+07
- Spleen (fluorescence expression intensity): 1.33E+07
- (Spleen/Total Flux) * 100%: 37.68%
- Multiple of spleen delivery/total delivery (Spleen/Total Flux) to Compound 118: 33.05

SMILES: CCCCCCCOCCCC(=O)N(CCCN(C)C)C(CCCCCCCCC(=O)OC(CCCCCC)CCCCCC)CCCCCCCCC(=O)OC(CCCCCC)CCCCCC [compound 132]
- Total flux (fluorescence expression intensity): 2.70E+07
- Spleen (fluorescence expression intensity): 6.10E+06
- (Spleen/Total Flux) * 100%: 22.59%
- Multiple of spleen delivery/total delivery (Spleen/Total Flux) to Compound 118: 19.82

SMILES: CCCCCCC(CCCCCC)OC(=O)CCCCCCCCC(CCCCCCCCC(=O)OC(CCCCCC)CCCCCC)N(CCN(C)C)C(=O)COCCCCC [compound 145]
- Total flux (fluorescence expression intensity): 1.21E+07
- Spleen (fluorescence expression intensity): 1.04E+05
- (Spleen/Total Flux) * 100%: 0.86%
- Multiple of spleen delivery/total delivery (Spleen/Total Flux) to Compound 118: 0.75

SMILES: CCCCCCOCC(=O)N(CCN(C)C)C(CCCCCCCCC(=O)OC(CCCCCC)CCCCCC)CCCCCCCCC(=O)OC(CCCCCC)CCCCCC [compound 146]
- Total flux (fluorescence expression intensity): 1.37E+07
- Spleen (fluorescence expression intensity): 6.65E+04
- (Spleen/Total Flux) * 100%: 0.49%
- Multiple of spleen delivery/total delivery (Spleen/Total Flux) to Compound 118: 0.43

SMILES: CCCCCCCOCC(=O)N(CCN(C)C)C(CCCCCCCCC(=O)OC(CCCCCC)CCCCCC)CCCCCCCCC(=O)OC(CCCCCC)CCCCCC [compound 147]
- Total flux (fluorescence expression intensity): 4.97E+06
- Spleen (fluorescence expression intensity): 1.13E+05
- (Spleen/Total Flux) * 100%: 2.27%
- Multiple of spleen delivery/total delivery (Spleen/Total Flux) to Compound 118: 1.99

SMILES: CCCCCCCCOCC(=O)N(CCN(C)C)C(CCCCCCCCC(=O)OC(CCCCCC)CCCCCC)CCCCCCCCC(=O)OC(CCCCCC)CCCCCC [compound 148]
- Total flux (fluorescence expression intensity): 4.45E+06
- Spleen (fluorescence expression intensity): 1.07E+05
- (Spleen/Total Flux) * 100%: 2.40%
- Multiple of spleen delivery/total delivery (Spleen/Total Flux) to Compound 118: 2.11

SMILES: CCCCCCC(CCCCCC)OC(=O)CCCCCCCCC(CCCCCCCCC(=O)OC(CCCCCC)CCCCCC)N(CCN(C)C)C(=O)CCOCCCC [compound 149]
- Total flux (fluorescence expression intensity): 5.80E+06
- Spleen (fluorescence expression intensity): 1.29E+05
- (Spleen/Total Flux) * 100%: 2.22%
- Multiple of spleen delivery/total delivery (Spleen/Total Flux) to Compound 118: 1.95

SMILES: CCCCCCC(CCCCCC)OC(=O)CCCCCCCCC(CCCCCCCCC(=O)OC(CCCCCC)CCCCCC)N(CCN(C)C)C(=O)CCOCCCCC [compound 150]
- Total flux (fluorescence expression intensity): 2.06E+07
- Liver (fluorescence expression intensity): 5.51E+06
- Spleen (fluorescence expression intensity): 2.27E+05
- (Spleen/Total Flux) * 100%: 1.10%
- Multiple of spleen delivery/total delivery (Spleen/Total Flux) to Compound 118: 0.97

SMILES: CCCCCCOCCC(=O)N(CCN(C)C)C(CCCCCCCCC(=O)OC(CCCCCC)CCCCCC)CCCCCCCCC(=O)OC(CCCCCC)CCCCCC [compound 151]
- Total flux (fluorescence expression intensity): 2.29E+07
- Liver (fluorescence expression intensity): 8.91E+06
- Spleen (fluorescence expression intensity): 1.30E+05
- (Spleen/Total Flux) * 100%: 0.57%
- Multiple of spleen delivery/total delivery (Spleen/Total Flux) to Compound 118: 0.50

SMILES: CCCCCCOCCCC(=O)N(CCN(C)C)C(CCCCCCCCC(=O)OC(CCCCCC)CCCCCC)CCCCCCCCC(=O)OC(CCCCCC)CCCCCC [compound 156]
- Total flux (fluorescence expression intensity): 3.07E+07
- Liver (fluorescence expression intensity): 9.75E+06
- Spleen (fluorescence expression intensity): 2.34E+05
- (Spleen/Total Flux) * 100%: 0.76%
- Multiple of spleen delivery/total delivery (Spleen/Total Flux) to Compound 118: 0.67

SMILES: CCCCCCCOCCCC(=O)N(CCN(C)C)C(CCCCCCCCC(=O)OC(CCCCCC)CCCCCC)CCCCCCCCC(=O)OC(CCCCCC)CCCCCC [compound 157]
- Total flux (fluorescence expression intensity): 2.80E+07
- Liver (fluorescence expression intensity): 1.07E+07
- Spleen (fluorescence expression intensity): 2.26E+05
- (Spleen/Total Flux) * 100%: 0.81%
- Multiple of spleen delivery/total delivery (Spleen/Total Flux) to Compound 118: 0.71

SMILES: CCCCCCC(CCCCCC)OC(=O)CCCCCCCCC(CCCCCCCCC(=O)OC(CCCCCC)CCCCCC)N(CCCCN(C)C)C(=O)COCCCC [compound 166]
- Total flux (fluorescence expression intensity): 1.25E+07
- Liver (fluorescence expression intensity): 7.74E+06
- Spleen (fluorescence expression intensity): 8.07E+06
- (Spleen/Total Flux) * 100%: 64.56%
- Multiple of spleen delivery/total delivery (Spleen/Total Flux) to Compound 118: 56.63
